In ChEMBL document CHEMBL1201862, “PubChem BioAssay data set” (2004):
Structures can show the parent of a compound that is named as a salt.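 Test compounds were applied to cells in 96-well plates for 48 hours at 5 doses. GI50: concentration for 50% inhibition of growth.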 Activity calls are given as the source filed them. Rule as the data show it: active = GI50 up to about 1.1 µM and inactive = higher. Square brackets hold non-standard residues; d marks the D form. Peptide text beside a SMILES is read from it.

What was measured:
Experiment in all cases: growth of human tumour cells (NCI), 48 h
HCT-116 = tested on: HCT-116
SW-620 = tested on: SW-620
NCI-H23 = tested on: NCI-H23
PC-3 = tested on: PC-3
COLO 205 = tested on: COLO 205
OVCAR-8 = tested on: OVCAR-8
SK-MEL-28 = tested on: SK-MEL-28
SK-OV-3 = tested on: SK-OV-3
LOX IMVI = tested on: LOX IMVI
M14 = tested on: M14
NCI-H460 = tested on: NCI-H460
RXF 393 = tested on: RXF 393
HCC 2998 = tested on: HCC 2998
IGROV-1 = tested on: IGROV-1
UACC-62 = tested on: UACC-62
HT-29 = tested on: HT-29
K562 = tested on: K562
NCI-H226 = tested on: NCI-H226
EKVX = tested on: EKVX
SN12C = tested on: SN12C

Structure (SMILES)	GI50 (HCT-116)	GI50 (SW-620)	GI50 (NCI-H23)	GI50 (PC-3)	GI50 (COLO 205)	GI50 (OVCAR-8)	GI50 (SK-MEL-28)	GI50 (SK-OV-3)	GI50 (LOX IMVI)	GI50 (M14)	GI50 (NCI-H460)	GI50 (RXF 393)	GI50 (HCC 2998)	GI50 (IGROV-1)	GI50 (UACC-62)	GI50 (HT-29)	GI50 (K562)	GI50 (NCI-H226)	GI50 (EKVX)	GI50 (SN12C)
COc1cc2c(cc1NC(=O)c1ccccc1)c1c(n2S(=O)(=O)c2ccccc2)CCN(S(=O)(=O)c2ccccc2)C1	> 100 µM (inactive)	> 100 µM (inactive)	> 100 µM (inactive)	> 100 µM (inactive)	> 100 µM (inactive)	> 100 µM (inactive)	> 100 µM (inactive)	> 100 µM (inactive)	> 100 µM (inactive)	> 100 µM (inactive)	> 100 µM (inactive)	> 100 µM (inactive)	> 100 µM (inactive)	> 100 µM (inactive)	> 100 µM (inactive)	> 100 µM (inactive)	> 100 µM (inactive)	> 100 µM (inactive)		
O=[N+]([O-])c1ccc2sc(/C=N/c3ccccn3)cc2c1	38.4 µM (inactive)	21.7 µM (inactive)	98.2 µM (inactive)	69.5 µM (inactive)	> 100 µM (inactive)	35.2 µM (inactive)	> 100 µM (inactive)	> 100 µM (inactive)	31.9 µM (inactive)	> 100 µM (inactive)	> 100 µM (inactive)	> 100 µM (inactive)	> 100 µM (inactive)	60.4 µM (inactive)	99.1 µM (inactive)	> 100 µM (inactive)	26.8 µM (inactive)		69 µM (inactive)	88.7 µM (inactive)
COc1cc2c[n+](C)c3c4cc(OC)c(OC)cc4c(OC)cc3c2cc1OC	2.92 µM (inactive)	7.69 µM (inactive)	5.58 µM (inactive)	12.2 µM (inactive)	1.2 µM (inactive)	0.371 µM (active)	6.43 µM (inactive)	42.2 µM (inactive)	16.7 µM (inactive)	30.5 µM (inactive)	17.4 µM (inactive)	8.83 µM (inactive)	6.01 µM (inactive)		6.27 µM (inactive)	5.48 µM (inactive)	4.03 µM (inactive)	1.36 µM (inactive)	> 74.1 µM (inactive)	0.188 µM (active)
CNN1C(=O)c2c(N)c(C#N)c(-c3ccccc3)c(-c3ccccc3)c2C1=O	44.1 µM (inactive)	> 100 µM (inactive)		55.6 µM (inactive)	> 100 µM (inactive)	90.6 µM (inactive)	> 100 µM (inactive)		> 100 µM (inactive)	> 100 µM (inactive)	71.6 µM (inactive)	82.8 µM (inactive)	> 100 µM (inactive)	48.9 µM (inactive)	> 100 µM (inactive)		48.9 µM (inactive)	> 100 µM (inactive)	> 100 µM (inactive)	> 100 µM (inactive)
Cc1nc2c(=O)n(-c3ccccc3)c(=O)n(-c3ccccc3)c2o1	> 100 µM (inactive)	> 100 µM (inactive)	> 100 µM (inactive)	> 100 µM (inactive)	> 100 µM (inactive)	> 100 µM (inactive)		> 100 µM (inactive)	> 100 µM (inactive)	> 100 µM (inactive)	> 100 µM (inactive)	> 100 µM (inactive)	> 100 µM (inactive)	> 100 µM (inactive)	> 100 µM (inactive)	> 100 µM (inactive)	> 100 µM (inactive)	> 100 µM (inactive)	> 100 µM (inactive)	> 100 µM (inactive)
N=C(N)NCCC[C@H]1NC(=O)[C@@H](CCC(=O)O)NC(=O)[C@@H](CC(=O)O)NC(=O)[C@@H](CCC(=O)O)NC(=O)[C@H](Cc2c[nH]c3ccccc23)NC1=O (cyclo(W[dE][dD][dE][dR]))	> 7.5 µM (inactive)	> 7.5 µM (inactive)	> 7.5 µM (inactive)	0.351 µM (active)	> 7.5 µM (inactive)	> 7.5 µM (inactive)		> 7.5 µM (inactive)	> 7.5 µM (inactive)	> 7.5 µM (inactive)	> 7.5 µM (inactive)	> 7.5 µM (inactive)	> 7.5 µM (inactive)	> 7.5 µM (inactive)	> 7.5 µM (inactive)	> 7.5 µM (inactive)	> 7.5 µM (inactive)	> 7.5 µM (inactive)	> 7.5 µM (inactive)	> 7.5 µM (inactive)
CN(C)/C=N\c1c(Br)cc(Br)c2nonc12	> 100 µM (inactive)	> 100 µM (inactive)	> 100 µM (inactive)	> 100 µM (inactive)	> 100 µM (inactive)	> 100 µM (inactive)	> 100 µM (inactive)	> 100 µM (inactive)		> 100 µM (inactive)	> 100 µM (inactive)	> 100 µM (inactive)	> 100 µM (inactive)	> 100 µM (inactive)	> 100 µM (inactive)	> 100 µM (inactive)	> 100 µM (inactive)	> 100 µM (inactive)	> 100 µM (inactive)	> 100 µM (inactive)
CC1(C)C2CCC(N)(C2)C1N (stereo unspecified)	> 100 µM (inactive)	> 100 µM (inactive)	> 100 µM (inactive)	> 100 µM (inactive)	> 100 µM (inactive)	> 100 µM (inactive)	> 100 µM (inactive)	> 100 µM (inactive)	> 100 µM (inactive)	> 100 µM (inactive)	> 100 µM (inactive)	> 100 µM (inactive)	> 100 µM (inactive)	> 100 µM (inactive)	> 100 µM (inactive)		> 100 µM (inactive)	> 100 µM (inactive)	> 100 µM (inactive)	> 100 µM (inactive)
O=C(CN1C(=O)c2ccccc2C1=O)OCC1CCCN2CCCCC12 (stereo unspecified)	> 100 µM (inactive)	> 100 µM (inactive)	> 100 µM (inactive)	> 100 µM (inactive)	99.5 µM (inactive)	> 100 µM (inactive)	> 100 µM (inactive)	> 100 µM (inactive)	> 100 µM (inactive)		> 100 µM (inactive)	> 100 µM (inactive)	> 100 µM (inactive)		> 100 µM (inactive)	> 100 µM (inactive)	> 100 µM (inactive)	> 100 µM (inactive)	> 100 µM (inactive)	> 100 µM (inactive)
c1ccc2c(c1)ccc1nc3ccccn3c12		> 100 µM (inactive)	> 100 µM (inactive)	> 100 µM (inactive)	> 100 µM (inactive)	> 100 µM (inactive)	> 100 µM (inactive)	35.2 µM (inactive)		> 100 µM (inactive)	> 100 µM (inactive)	> 100 µM (inactive)	> 100 µM (inactive)	> 100 µM (inactive)	> 100 µM (inactive)	> 100 µM (inactive)	> 100 µM (inactive)	> 100 µM (inactive)	68.5 µM (inactive)	> 100 µM (inactive)
[N-]=[N+]=Nc1c(N2CCOCC2)c(Cl)nc2ccccc12	39.5 µM (inactive)	72.3 µM (inactive)	30.7 µM (inactive)	34.2 µM (inactive)	33.5 µM (inactive)	35.2 µM (inactive)	59.8 µM (inactive)	> 100 µM (inactive)	46.6 µM (inactive)	37.4 µM (inactive)	28.8 µM (inactive)	64.6 µM (inactive)	92.7 µM (inactive)	81.8 µM (inactive)		27.2 µM (inactive)	37.6 µM (inactive)	30.3 µM (inactive)	9.55 µM (inactive)	47.8 µM (inactive)
NCCCCN [PUTRESCINE HYDROCHLORIDE]	> 100 µM (inactive)	> 100 µM (inactive)	> 100 µM (inactive)	> 100 µM (inactive)	> 100 µM (inactive)	> 100 µM (inactive)	> 100 µM (inactive)	> 100 µM (inactive)	> 100 µM (inactive)	> 100 µM (inactive)	> 100 µM (inactive)	> 100 µM (inactive)	> 100 µM (inactive)	> 100 µM (inactive)	> 100 µM (inactive)	> 100 µM (inactive)	> 100 µM (inactive)	> 100 µM (inactive)	> 100 µM (inactive)	
Cc1nc2ccccc2c(=O)n1-c1n[nH]c2ccccc12	> 100 µM (inactive)	> 100 µM (inactive)	> 100 µM (inactive)	> 100 µM (inactive)	> 100 µM (inactive)	> 100 µM (inactive)	> 100 µM (inactive)		> 100 µM (inactive)	> 100 µM (inactive)	> 100 µM (inactive)	> 100 µM (inactive)	> 100 µM (inactive)	> 100 µM (inactive)	> 100 µM (inactive)	> 100 µM (inactive)	> 100 µM (inactive)	80.5 µM (inactive)	> 100 µM (inactive)	> 100 µM (inactive)
CC(O)c1c2c(cc3c1CC1(C3)Cc3cc4c(c(C(C)O)c3C1)CCC4)CCC2 (stereo unspecified)	12.1 µM (inactive)		15.5 µM (inactive)	18.7 µM (inactive)	13.4 µM (inactive)	46.2 µM (inactive)		23.2 µM (inactive)	17.5 µM (inactive)	18.6 µM (inactive)		14.9 µM (inactive)	17.3 µM (inactive)	20.3 µM (inactive)	19.3 µM (inactive)	12.9 µM (inactive)	9.59 µM (inactive)	15.6 µM (inactive)	27.9 µM (inactive)	16.7 µM (inactive)
CNC(=O)OCc1cnc([N+](=O)[O-])n1C	> 100 µM (inactive)	> 100 µM (inactive)	> 100 µM (inactive)	> 100 µM (inactive)	> 100 µM (inactive)	> 100 µM (inactive)	> 100 µM (inactive)		> 100 µM (inactive)		> 100 µM (inactive)	> 100 µM (inactive)	> 100 µM (inactive)	> 100 µM (inactive)		> 100 µM (inactive)	> 100 µM (inactive)	> 100 µM (inactive)	> 100 µM (inactive)	> 100 µM (inactive)
